Structures can show the parent of a compound that is named as a salt.
How the values were obtained:
[1] = target: α1; assay: receptor binding profile, α1; conditions: read-out: α1 Affinity is expressed as IC50
[2] = target: D2 (Rattus norvegicus, UniProt P61169); assay: receptor binding profile, D2; conditions: read-out: D2 Affinity is expressed as IC50
[3] = target: D1 (Rattus norvegicus, UniProt P18901); assay: receptor binding profile, D1; conditions: read-out: D1 Affinity is expressed as IC50
D1, sequence (P18901 whole entry): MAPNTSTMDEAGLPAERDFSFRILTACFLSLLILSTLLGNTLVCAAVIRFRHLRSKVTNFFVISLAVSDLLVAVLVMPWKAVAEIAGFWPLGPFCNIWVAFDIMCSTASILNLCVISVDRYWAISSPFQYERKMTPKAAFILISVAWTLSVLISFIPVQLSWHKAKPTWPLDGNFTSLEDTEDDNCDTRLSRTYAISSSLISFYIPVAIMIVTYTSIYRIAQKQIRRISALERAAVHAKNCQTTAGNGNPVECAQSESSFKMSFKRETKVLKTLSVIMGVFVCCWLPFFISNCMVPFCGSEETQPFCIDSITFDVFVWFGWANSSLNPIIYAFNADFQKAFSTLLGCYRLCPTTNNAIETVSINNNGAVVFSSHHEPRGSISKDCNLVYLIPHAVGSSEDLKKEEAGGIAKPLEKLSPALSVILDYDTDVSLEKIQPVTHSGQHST

[4] = target: T1, 5-HT1A receptor sites (Rattus norvegicus, UniProt P19327); assay: receptor binding profile, 5-HT1A; conditions: read-out: 5-HT1A Affinity is expressed as IC50
T1 sequence (P19327 1-422): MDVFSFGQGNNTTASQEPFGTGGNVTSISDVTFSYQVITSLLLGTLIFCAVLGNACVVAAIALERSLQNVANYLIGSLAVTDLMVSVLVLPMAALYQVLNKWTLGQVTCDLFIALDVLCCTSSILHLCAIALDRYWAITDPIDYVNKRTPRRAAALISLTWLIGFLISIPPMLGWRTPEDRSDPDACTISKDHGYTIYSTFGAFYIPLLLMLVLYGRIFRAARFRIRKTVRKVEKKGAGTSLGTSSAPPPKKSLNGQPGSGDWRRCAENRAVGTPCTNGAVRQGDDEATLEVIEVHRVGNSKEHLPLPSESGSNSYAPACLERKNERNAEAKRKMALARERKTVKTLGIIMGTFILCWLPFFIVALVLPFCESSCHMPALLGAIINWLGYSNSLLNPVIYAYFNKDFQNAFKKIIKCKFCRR
From the text: The affinity of the compounds of the present invention towards 5-HT1A receptor sites can be assessed by evaluating the binding profile of the compounds of formula (I).

[5] = target: α2; assay: receptor binding profile, α2; conditions: read-out: α2 Affinity is expressed as IC50
[6] = target: 5-HT2 (Rattus norvegicus, UniProt P14842); assay: receptor binding profile, 5-HT2; conditions: read-out: 5-HT2 Affinity is expressed as IC50
5-HT2, sequence (P14842 whole entry): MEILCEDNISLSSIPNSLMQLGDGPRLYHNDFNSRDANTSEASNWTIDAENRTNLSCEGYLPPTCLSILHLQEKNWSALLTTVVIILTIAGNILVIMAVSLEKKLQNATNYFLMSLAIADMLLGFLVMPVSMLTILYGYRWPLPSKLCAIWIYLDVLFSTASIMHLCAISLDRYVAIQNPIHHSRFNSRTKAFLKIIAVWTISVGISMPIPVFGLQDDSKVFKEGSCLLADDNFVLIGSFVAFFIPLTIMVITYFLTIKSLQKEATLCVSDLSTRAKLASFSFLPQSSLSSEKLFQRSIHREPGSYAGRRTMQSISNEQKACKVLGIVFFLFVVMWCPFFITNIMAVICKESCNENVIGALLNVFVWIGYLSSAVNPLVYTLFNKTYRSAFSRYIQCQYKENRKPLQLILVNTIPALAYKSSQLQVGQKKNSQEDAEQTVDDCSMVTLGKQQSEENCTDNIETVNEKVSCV

D2, sequence (P61169 whole entry): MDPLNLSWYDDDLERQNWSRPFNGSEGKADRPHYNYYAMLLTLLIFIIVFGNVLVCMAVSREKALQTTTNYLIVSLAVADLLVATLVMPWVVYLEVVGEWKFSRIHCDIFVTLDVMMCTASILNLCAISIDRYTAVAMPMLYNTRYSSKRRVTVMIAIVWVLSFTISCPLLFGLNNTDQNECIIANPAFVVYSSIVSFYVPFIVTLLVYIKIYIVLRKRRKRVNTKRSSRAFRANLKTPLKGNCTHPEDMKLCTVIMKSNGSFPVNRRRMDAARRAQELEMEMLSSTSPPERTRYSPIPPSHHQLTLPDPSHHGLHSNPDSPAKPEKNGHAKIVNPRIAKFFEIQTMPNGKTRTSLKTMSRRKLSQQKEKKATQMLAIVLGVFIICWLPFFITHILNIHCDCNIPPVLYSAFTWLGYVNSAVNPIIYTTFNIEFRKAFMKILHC

Work on “6-Methoxy-2-[4-(4-phenyl-piperazin-1-yl)-butyl]-4,5-dihydro-naphtho[1,2-d]thiazole hydrochloride [(10)]” yielded an IC50 [1] of 1.14 µM, an IC50 [2] of 0.68 µM and an IC50 [3] of over 10 µM. It also gave an IC50 [4] of 0.4 µM, an IC50 [5] of 3.77 µM and an IC50 [6] of 3.18 µM.
In the case of “5-Methoxy-2-[4-(4-phenyl-piperazin-1-yl)-butyl]-4,5-dihydro-naphtho[1,2-d]thiazole hydrochloride [(11)]”, the IC50 [1] is reported as 0.052 µM, the IC50 [2] is reported as 0.024 µM and the IC50 [3] is reported as 1.77 µM. The IC50 [4] was 0.01 µM, the IC50 [5] was 0.018 µM and the IC50 [6] was 0.066 µM.
In the case of “7-Methoxy-2-{4-[4-(2-pyridyl)-piperazin-1-yl]-butyl}-4,5-dihydro-naphtho[1,2-d]thiazole hydrochloride [(9)]”, the IC50 [1] is reported as 0.058 µM, the IC50 [2] is reported as 0.011 µM and the IC50 [3] is reported as 0.43 µM. The IC50 [4] was 0.0041 µM, the IC50 [5] was 0.02 µM and the IC50 [6] was 0.055 µM.
Compound c1ccc(N2CCN(CCCCc3nc4c(s3)CCc3ccccc3-4)CC2)cc1 [(5), 2-[4-(4-phenyl-piperazin-1-yl)-butyl]-4,5-dihydronaphtho[1,2-d]thiazole hydrocloride] has an IC50 [1] of 0.17 µM, an IC50 [4] of 0.067 µM and an IC50 [5] of 0.26 µM. The IC50 [6] was 0.066 µM.
In the case of c1ccc(N2CCN(CCc3nc4c(s3)CCc3ccccc3-4)CC2)cc1 [(3)], the IC50 [1] is reported as 0.11 µM, the IC50 [4] is reported as 0.17 µM and the IC50 [5] is reported as 0.16 µM. For the same compound, the IC50 [6] was 0.063 µM.
“5-Methoxy-2-{4-[4-(2-methoxy-phenyl)-piperazin-1-yl]-butyl}-4,5-dihydro-naphtho[1,2-d]thiazole hydrochloride [(13)]” was tested, and the IC50 [1] was 0.035 µM, the IC50 [2] was 0.008 µM and the IC50 [4] was 0.0037 µM. The IC50 [5] was 0.046 µM and the IC50 [6] was 0.24 µM.
Work on “7-Methoxy-2-[4-(4-phenyl-piperazin-1-yl)-butyl]-4,5-dihydro-naphtho[1,2-d]thiazole hydrochloride [(7)]” yielded an IC50 [1] of 0.049 µM, an IC50 [2] of 0.025 µM and an IC50 [3] of 1.18 µM. For the same compound, the IC50 [4] was 0.012 µM, the IC50 [5] was 0.5 µM and the IC50 [6] was 0.87 µM.
Work on c1ccc(N2CCN(Cc3nc4c(s3)CCc3ccccc3-4)CC2)cc1 [(2), 2-[(4-phenyl-piperazin-1-yl)-methyl]-4,5 dihydronaphtho[1,2-d]thiazole hydrocloride] yielded an IC50 [1] of 0.13 µM, an IC50 [4] of 0.042 µM and an IC50 [5] of 0.3 µM. It also gave an IC50 [6] of 0.3 µM.
c1ccc(N2CCN(CCCc3nc4c(s3)CCc3ccccc3-4)CC2)cc1 [(4), 2-[3-(4-phenyl-piperazin-1-yl)-propyl]-4,5-dihydronaphtho[1,2-d]thiazole hydrocloride] gave an IC50 [1] of 0.12 µM, an IC50 [4] of 0.069 µM and an IC50 [5] of 0.11 µM. The IC50 [6] was 0.28 µM.
In the case of COc1ccc2c(c1)CCc1sc(CCCN3CCN(c4ccccc4OC)CC3)nc1-2 [(6), 7-Methoxy-2-{3-[4-(2-methoxy-phenyl) -piperazin-1-yl]-propyl}-4,5-dihydro-naphtho[1,2-d]thiazole hydrochloride], the IC50 [1] is reported as 0.09 µM and the IC50 [5] is reported as 0.16 µM.
For “5-Methoxy-2-{4-[4-(2-pyridyl)-piperazin-1-yl]-butyl}-4,5-dihydro-naphtho[1,2-d]thiazole hydrochloride [(12)]”, the IC50 [1] was 0.19 µM, the IC50 [2] was 0.061 µM and the IC50 [3] was 1.49 µM. The IC50 [4] was 0.0082 µM, the IC50 [5] was 0.39 µM and the IC50 [6] was 0.082 µM.
“7-Methoxy-2-{4-[4-(2-methoxy-phenyl)-piperazin-1-yl]-butyl}-4,5-dihydro-naphtho[1,2-d]thiazole hydrochloride [(8)]” showed an IC50 [1] of 0.2 µM, an IC50 [2] of 0.15 µM and an IC50 [3] of 1.61 µM. It also gave an IC50 [4] of 0.007 µM, an IC50 [5] of 0.38 µM and an IC50 [6] of 0.72 µM.
With “6-Methoxy-2-{4-(4-(2-methoxy-phenyl)-piperazin-1-yl]-butyl}-4,5-dihydro-naphtho[1,2-d]thiazole hydrochloride [(1)]” the IC50 [1] was 0.052 µM, the IC50 [2] was 0.02 µM and the IC50 [3] was 0.59 µM. It also gave an IC50 [4] of 0.0032 µM, an IC50 [5] of 0.092 µM and an IC50 [6] of 0.25 µM.
